Test results taken from US12673972B2, “Lung-specific targeting-peptide (LTP), compositions, and uses thereof” (University of Pittsburgh—Of the Commonwealth System of …, priority 2019, dated 2026).
“Also recorded” adds a separate entry of the source. No end group written: not given here. Cy5.5 = Cy5.5 fluorescent label

Experiments:
[1] = tested on: human bronchial epithelial cells from patients with Cystic Fibrosis (CF); assay: Confocal uptake in human bronchial epithelial cells from patients with Cystic Fibrosis; assay type: cell-based; details: for uptake by confocal microscopy: 10 μM, 0, 2, 10 or 30 minutes at 37° C./5% CO2, FIG. 6A; for quantification of fluorescence intensity (uptake): FIG. 6B
Description: Cells were grown on coverslips, incubated with 10 μM of S7A peptide, R11A peptide, or a random, negative control peptide, for 0, 2, 10, or 30 minutes at 37° C./5% CO2. Following incubation, cells were washed with prewarmed PBS, cross-stained with DAPI, fixed, and mounted on slides for confocal microscopy. […] In the time 0 and 2 minute timepoints, only the DAPI nuclear stain is visible, with cytoplasmic staining for the LTPs growing visible at 10 minutes and dominating the field of view at 30 minutes.

CD1 mice = assay: In vivo biodistribution of fluorescently labeled peptides in mice (IVIS ex vivo organ imaging, confocal microscopy); details: for cardiac uptake / uptake in lung epithelial tissue: 10 mg/kg intravenously, 15 minutes circulation, CD1 mice; for uptake in lung epithelial tissue: confocal and IVIS; for greater lung than liver uptake (lung-to-liver ratio of fluorescent intensity) / lung transduction at lower doses: S7A 5 mg/kg, R11A 5 and 1 mg/kg, 15 minutes, ex vivo IVIS; for lung transduction at lower doses: even at the lowest injected dose
Description: CTP-B, CTP-P2A, CTP-S7A, CTP-R11A and a random negative control peptide (RAN), were further tested in vivo in mice, in triplicate. Wild-type, 6-week old, male and female CD1 mice were weighed and anesthetized. Mice were injected intravenously with the various peptides, each at a dose of 10 mg/kg. Peptides circulated for 15 minutes, after which mice were euthanized and fixed with 3 ml of 10% formalin injected through the left ventricular apex. Multiple organs (heart, lungs, liver, kidney, spleen, brain, large intestines, small intestines, testes/ovaries, and eyeball) were harvested, placed in a 12-well plate, and immediately imaged using a Perkin-Elmer IVIS imaging system using the relevant excitation-emission laser/detector wavelengths. After the imaging was complete, organs were placed in 10% formalin at room temperature. Following overnight fixation in formalin, organs were transferred to 30% sucrose at 4° C. Following overnight incubation in sucrose, all organs were embedded and frozen in optical cutting medium, 10 μm thick sections were cut, mounted with DAPI, and cover-slipped. Slides were imaged using confocal fluorescent microscopy using the same parameters for imaging between mice, peptides and organs, to allow for comparison and quantification of fluorescence intensities in the relevant regions of interest.
Injections were repeated in a total of 9 CD1 mice with identical lung uptake; all images were acquired with the same confocal microscope parameters to allow for cross-animal comparison; however, at the same laser intensity, the lung sample was saturated. […] Wild-type mice were injected with Cy5.5 labeled R11A at a dose of 10 mg/kg, and euthanized mice after 15 minutes; multiple organs were then harvested for imaging.
Wild-type CD1 mice were then injected with lower doses of fluorescently labeled S7A peptide (5 mg/kg) or R11A peptide (5 and 1 mg/kg). The peptides were allowed to circulate for 15 minutes, mice were sacrificed, multiple organs were harvested, and ex vivo IVIS imaging was performed. Ex vivo imaging of organs harvested from mice without injected peptides was performed in order to subtract background auto-fluorescent signal from the test organs. IVIS imaging of multiple organs was conducted after administering decreasing doses of peptide from 5 to 1 mg/kg. […] Quantification of IVIS imaging for total fluorescent intensity for heart, lung, liver, kidney, spleen, and brain is shown in FIG. 4. Using the fluorescent intensity values, Lung-to-Liver ratios for both peptides were calculated at the tested doses.

[2] = tested on: human bronchial epithelial cells from patients with CF; assay: Uptake at 4° C with fluorescently labeled transferrin (Tf-488) in human bronchial epithelial cells from patients with CF; assay type: cell-based; details: for uptake relative to random peptide: 10 μM, 1 hour on ice at 4° C. then 37° C., times 0, 5 and 30 minutes; for energy dependence of internalization: occurred even at 4° C.
Description: To further characterize uptake of S7A peptide and R11A peptide in cells of interest, human bronchial epithelial cells from patients with CF were grown on cover-slips. Cells were starved at 37° C. for 1 hour in minimal media (MEM media+0.5% Bovine Serum Albumin (BS)+25 mM Hepes buffer at pH 7.4), washed with cold PBS, incubated on ice at 4° C. with fluorescently labeled transferrin (Tf-488) and 10 μM of test peptide (Random, S7A peptide, or R11A peptide) for 1 hour before being shifted to a 37° C. water-bath. Cover-slips were fixed at times 0, 5 and 30 minutes, with random peptide samples fixed only at 0 and 30 minutes.

H9C2 cells [3] = assay: FACS uptake of Cy5.5-labeled alanine-scan peptides in H9C2 cells; assay type: cell-based, rat; details: 10 μM peptide, 30 minutes at 37° C., FACS gated on live cells
Description: An alanine scan of the cardiac targeting peptide (CTP, APWHLSSQYSRT, SEQ ID NO: 3) was performed, in which each amino acid was replaced sequentially with alanine, resulting in 11 different “alanine mutant” versions of CTP. Solid phase peptide synthesis of the alanine mutants of CTP fluorescently labeled with Cyanine 5.5 (Cy5.5) was conducted using standard fluorenylmethoxycarbonyl protecting group organic synthesis (FMOC) conditions on a Liberty CEM Microwave Peptide Synthesizer. Cleavage of the fully-protected CTP peptide fragment from the 2-chlorotrityl solid support was accomplished using 1% Trifluoroacetic acid (TFA)/methylene chloride (DCM), followed by elution of the peptide using TFA+scavengers, followed by isolation of the crude product by precipitation in Diethyl Ether (EtO2). Fluorescent dye labelling of the N-terminal amine was performed in solution using Cy5.5-NHS (Lumiprobe, Inc). The resulting crude cyclic CTP-Cy5.5 peptide was purified by preparative C-5 Reversed Phase High Performance Liquid Chromatography (RP-HPLC) on a Waters Delta Prep 4000 chromatography system, using standard Acetonitrile/0.1% TFA gradient conditions. Analytical C-5 RP-HPLC characterization on a Waters Alliance chromatography system followed by Matrix-Assisted Laser Desorption/Ionization Time-Of-Flight Mass Spectrometry (MALDI-TOF-MS) analysis on an Applied Biosystems Voyager workstation was used to confirm the expected mass and purity of the final product. For the purposes of nomenclature, the CTP mutants are identified by the original amino acid followed by its numbered position and A to indicate alanine at the substituted position, e.g., R11A indicates arginine at position 11 of CTP substituted with alanine (APWHLSSQYSAT, SEQ ID NO: 2). CTP was also synthesized as a 6-amino acid N-terminal peptide (CTP-A, APWHLS, SEQ ID NO: 4), and as a 6-amino acid C-terminal peptide (CTP-B, SQYSRT, SEQ ID NO: 5).
For in vitro testing, a rat cardiomyoblast cell line, H9C2 was incubated with each of the alanine-scan peptides, including parental peptide CTP and variants CTP-A and CTP-B; each condition was run in triplicate. For the incubation, peptides were received as lyophilized powders and made into 10 mM stock solutions in DMSO. The stock solution was diluted in culture medium to a final concentration of 10 μM for each peptide, and incubated for 30 minutes at 37° C. with H9C2 cells. Following the incubation period, cells were washed extensively with PBS, trypsinized and fluorescence activated cell sorting (FACS) was performed in biological triplicates. […] There was almost a 3-4 fold increase in median fluorescence intensities compared with CTP for S7A peptide and R11A peptide (FIG. 1).

H9C2 cells [4] = assay: Confocal microscopy of H9C2 cells transduced with linear or cyclic CTP; assay type: cell-based, rat; details: for Mean (fluorescence) / Subtraction (mean minus background fluorescence): transduced H9C2 cells, confocal quantification
From the text: The cardiac targeting peptide (CTP, SEQ ID NO: 3) was cyclized by establishing a chemical bond between the amino and carboxyl termini (between the alpha-amino group of N-terminal Lysine and the C-terminus of the peptide sequence), and subsequently labelled with a Cy5.5 fluorescent label at the epsilon amino group of the N-terminal lysine.
The cyclic form of CTP was then compared to the linear form of CTP using confocal microscopy of transduced H9C2 cells, using the protocol as described in Example 1 above. […] Quantification of the fluorescence intensity, as shown in FIG. 10B and Table 2, confirmed the enhanced fluorescent activity.

Substance	uptake by confocal microscopy [1]	quantification of fluorescence intensity (uptake) ([1]; 10 μM)	uptake and fluorescence intensity compared between test peptides ([1]; 10 μM, confocal microscopy, FIG. 6A)	cardiac uptake (CD1 mice)	uptake in lung epithelial tissue (CD1 mice)	greater lung than liver uptake (lung-to-liver ratio of fluorescent intensity) (CD1 mice)	lung transduction at lower doses (CD1 mice)	uptake relative to random peptide [2]	energy dependence of internalization [2]	uptake of the fluorescently labeled peptide into H9C2 cells as compared to full-length, parental CTP (H9C2 cells [3])	Mean (fluorescence) (H9C2 cells [4])	Subtraction (mean minus background fluorescence) (H9C2 cells [4])	uptake of cyclic format relative to linear format (H9C2 cells [4]; confocal imaging, FIG. 10A)
APWHLSAQYSRT (also: Cy5.5 label, place not given here) [S7A, Lung-specific targeting peptide, alanine mutant of CTP; tested Cy5.5-labeled]	robust uptake	significantly high uptake	higher uptake and fluorescence intensity even than R11A peptide	did not show significant cardiac uptake; also recorded: without significant cardiac uptake	robust uptake	approximately 2.5 fold	Robust lung transduction	robust uptake	not energy-dependent	statistically significantly higher uptake	–	–	–
SQYSRT [CTP-B, 6-amino acid C-terminal peptide of CTP]	–	–	–	results similar to what was predicted from in vitro H9C2 transduction	–	–	–	–	–	statistically significantly higher uptake	–	–	–
AAWHLSSQYSRT [CTP-P2A]	–	–	–	results similar to what was predicted from in vitro H9C2 transduction	–	–	–	–	–	statistically significantly higher uptake	–	–	–
APWHLSSQYSRT [Linear CTP, cardiac targeting peptide described in WO2019226785A1, parental peptide, reference compound]	–	–	–	–	–	–	–	–	–	–	362.478	134.777	–
KAPWHLSSQYSRT (cyclo(K(Cy5.5)APWHLSSQYSRT)) [Cyclic CTP, CTP cyclized via N-terminal lysine alpha-amino group to C-terminus, Cy5.5 at lysine epsilon amino group]	–	–	–	–	–	–	–	–	–	–	521.590	371.123	enhanced uptake relative to the linear format
APWHLSSQYSAT (also: Cy5.5 label, place not given here) [R11A, Lung-specific targeting peptide, alanine mutant of CTP; tested Cy5.5-labeled]	robust uptake	significantly high uptake	–	did not show significant cardiac uptake; also recorded: without significant cardiac uptake	Robust lung uptake	8-9 fold	Robust lung transduction	robust uptake	not energy-dependent	statistically significantly higher uptake	–	–	–
